Experimental findings from EP4813993A1, “COMPOUND, PREPARATION METHOD THEREFOR, AND USE THEREOF” (Sichuan Kelun Pharmaceutical Research Institute Co., Ltd., priority 2023, dated 2025) are described below.

SMILES strings stand for the structures.

For orientation: AUC(0-inf) means the area under the concentration-time curve extrapolated to infinity. The low end stands for low exposure, the high end for high exposure. The inhibition is the percentage by which the read-out fell short of the control. The IC50 is the midpoint of a concentration-inhibition curve. A low value points to greater potency in that assay.

Data set [1] concerns incision pain model. The data set is described as follows: Incision pain model in ICR mice, Von Frey test. The format is in vivo. The conditions noted are these: Mean + SEM, n = 10; for PWT 50% value (g) Post-surgery, Preadministration / PWT 50% value (g) Pre-surgery: 50 mg/kg group; for PWT 50% value (g) Post-surgery, Preadministration: baseline before administration; for PWT 50% value (g) Pre-surgery: baseline before surgery; for PWT 50% value (g) 0.5 h / PWT 50% value (g) 2 h / PWT 50% value (g) 4 h: 50 mg/kg single dose; for PWT 50% value (g) 0.5 h: 0.5 h after administration; for PWT 50% value (g) 2 h: 2 h after administration; for PWT 50% value (g) 4 h: 4 h after administration. Here is the method:
Experimental Example 6: Pharmacodynamic effect study of compounds in incision pain model in ICR mice Experimental animals: ICR mice, male, 28-35 g.
(§1) Compound preparation: 5% (final preparation volume) of DMSO was added to dissolve the test compound, and then 10% (final preparation volume) of Cremophor EL and 85% Saline were sequentially added.
A plantar incision pain model was established in mice via surgery before the administration and test. Mice were placed in an anesthesia induction chamber and given 3%-4% isoflurane for anesthesia induction. After the anesthesia induction, a breathing mask was applied, and the isoflurane concentration was adjusted to 1%-2% to prevent the mice from suffering pain during the surgery. Each mouse was placed in a supine position, and the surgical site was disinfected with alcohol and iodophor. Under sterile conditions, a 0.5 cm longitudinal incision was made on the left hind paw surface, 0.2 cm away from the heel, extending toward the toes. The skin and fascia were incised; the plantar muscle was separated, slightly lifted, and longitudinally incised. The skin was then sutured with 5-0 sutures and disinfected.
2. Administration and test
The Von Frey test was performed once before the surgery. On the second day after animal modeling, the test was repeated, and animals meeting the baseline requirements were selected for enrollment. The animals were randomly grouped based on the 50% PWT values, with 10 animals per group. Administration was performed under a double-blind test protocol. The 50% PWT of the animals was measured separately before administration (baseline) and at 0.5 h, 2 h, and 4 h after administration, and a single dose was administered. The model control group was given normal saline, while the compound groups were given the compounds according to the administration doses in the table below.

Data set [2] in a line: Pharmacokinetic study in ICR mice. The format is in vivo. The conditions noted are these: mouse. The procedure: Experimental Example 3: Pharmacokinetic study of compounds in ICR mice
(§2) Experimental animals: ICR mice, male, 6-8 weeks old.
as §1
The injection group was given free access to food and water. The oral group was fasted overnight (> 12 h) with free access to water, and was fed 4 h after administration. Blood samples were collected from the jugular vein of ICR mice at the following time points: 5 min, 15 min, 0.5 h, 1 h, 2 h, 4 h, 8 h, and 24 h after injection administration; 15 min, 0.5 h, 1 h, 2 h, 4 h, 6 h, 8 h, and 24 h after oral administration. The collected blood samples were anticoagulated, placed in an ice bath, and then centrifuged for 5 min to separate plasma. The plasma was stored at -70 °C for analysis.
Sample test: The concentrations of the designated compound drugs in plasma were determined by the LC-MS/MS method; the main pharmacokinetic parameters were calculated using the Winnolin 8.3 non-compartmental model. Pharmacokinetic test results of some compounds of the present disclosure in ICR mice

The target of another data set is T1, Nav1.8 channels (Homo sapiens, UniProt Q9Y5Y9).
T1 construct: expressed in transfected cells
T1 sequence (Q9Y5Y9 whole entry): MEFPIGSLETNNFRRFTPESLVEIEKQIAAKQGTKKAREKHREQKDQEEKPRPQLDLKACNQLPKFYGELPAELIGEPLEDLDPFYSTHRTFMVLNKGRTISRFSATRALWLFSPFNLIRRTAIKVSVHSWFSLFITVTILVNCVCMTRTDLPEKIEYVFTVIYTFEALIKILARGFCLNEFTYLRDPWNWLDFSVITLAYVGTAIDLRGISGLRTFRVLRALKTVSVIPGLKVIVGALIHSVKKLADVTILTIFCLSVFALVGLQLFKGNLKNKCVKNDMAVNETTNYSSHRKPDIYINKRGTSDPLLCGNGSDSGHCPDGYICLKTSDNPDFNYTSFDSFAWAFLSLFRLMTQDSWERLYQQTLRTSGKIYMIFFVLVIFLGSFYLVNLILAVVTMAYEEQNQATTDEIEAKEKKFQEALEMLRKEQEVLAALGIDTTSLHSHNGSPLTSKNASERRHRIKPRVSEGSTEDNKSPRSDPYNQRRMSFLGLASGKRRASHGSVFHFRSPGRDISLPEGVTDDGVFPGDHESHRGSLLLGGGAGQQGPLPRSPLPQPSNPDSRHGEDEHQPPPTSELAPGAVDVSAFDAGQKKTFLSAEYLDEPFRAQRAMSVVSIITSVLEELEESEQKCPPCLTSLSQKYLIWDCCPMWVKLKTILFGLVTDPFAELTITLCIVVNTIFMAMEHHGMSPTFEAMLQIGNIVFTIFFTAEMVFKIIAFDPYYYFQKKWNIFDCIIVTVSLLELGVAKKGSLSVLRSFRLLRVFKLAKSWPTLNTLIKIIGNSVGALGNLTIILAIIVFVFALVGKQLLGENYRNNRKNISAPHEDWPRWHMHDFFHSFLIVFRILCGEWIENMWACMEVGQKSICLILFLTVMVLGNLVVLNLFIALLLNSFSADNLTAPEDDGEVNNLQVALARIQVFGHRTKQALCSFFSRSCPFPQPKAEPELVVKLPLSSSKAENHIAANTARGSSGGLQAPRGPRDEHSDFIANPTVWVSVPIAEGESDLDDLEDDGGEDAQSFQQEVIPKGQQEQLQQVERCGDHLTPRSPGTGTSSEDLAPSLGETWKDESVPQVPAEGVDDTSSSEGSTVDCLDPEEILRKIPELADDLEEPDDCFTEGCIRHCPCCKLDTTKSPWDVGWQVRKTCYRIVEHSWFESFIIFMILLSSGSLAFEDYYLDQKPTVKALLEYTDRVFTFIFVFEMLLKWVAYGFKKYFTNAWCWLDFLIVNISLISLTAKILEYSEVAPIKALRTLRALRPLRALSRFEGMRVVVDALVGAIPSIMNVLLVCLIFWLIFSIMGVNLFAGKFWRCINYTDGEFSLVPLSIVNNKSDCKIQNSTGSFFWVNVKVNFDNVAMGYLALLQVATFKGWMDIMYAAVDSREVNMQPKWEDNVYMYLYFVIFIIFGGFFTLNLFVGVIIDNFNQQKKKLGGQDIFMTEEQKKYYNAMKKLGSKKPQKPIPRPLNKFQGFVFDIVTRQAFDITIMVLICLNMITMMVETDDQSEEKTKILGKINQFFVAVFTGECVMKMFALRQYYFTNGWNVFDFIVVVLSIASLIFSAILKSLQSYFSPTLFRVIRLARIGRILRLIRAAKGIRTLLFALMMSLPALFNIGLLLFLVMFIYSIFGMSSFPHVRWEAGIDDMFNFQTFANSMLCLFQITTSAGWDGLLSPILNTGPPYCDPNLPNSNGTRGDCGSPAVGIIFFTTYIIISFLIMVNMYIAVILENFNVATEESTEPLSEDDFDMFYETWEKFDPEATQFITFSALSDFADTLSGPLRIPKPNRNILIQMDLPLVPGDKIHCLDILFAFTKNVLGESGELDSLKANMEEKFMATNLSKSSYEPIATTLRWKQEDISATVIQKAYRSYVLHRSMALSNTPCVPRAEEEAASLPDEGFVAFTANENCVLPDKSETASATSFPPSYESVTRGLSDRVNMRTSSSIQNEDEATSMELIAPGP
Description: Manual patch-clamp, current of stably overexpressed Nav1.8 channels (resting state voltage program). The note with it: for inhibition at 0.001 µM: concentration of 1 nM, read-out: Inhibition rate %. The format is cell-based. The method, boiled down: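 Whole-cell manual patch clamp on cells stably overexpressing Nav1.8, held at -120 mV and stepped to 0 mV for 50 ms every 20 s (resting-state protocol). Compounds were perfused in ascending concentrations, each for 5 min or until stable; block of peak current was calculated at steady state.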
Background: The patch-clamp technique gives a direct electrical read-out from membranes.

Data set [3] can be described thus: Tissue distribution study (dorsal root ganglia) in ICR mice. The class given is in vivo. The note with it: male, mouse, oral administration 20 mg/kg. The procedure: Experimental Example 4: Tissue distribution study of compounds in ICR mice
as §2, §1
Experimental design: The test compounds were administered to ICR mice as a single dose via oral administration (20 mg/kg; n = 3, 3 time points). Blood samples were collected at 0.25 h, 2 h, and 12 h after oral administration, followed by sacrifice of the animals. Dorsal root ganglia (DRG) were collected, rinsed with ice-cold normal saline to remove residual blood, blotted dry with absorbent paper, and stored at -70 °C for analysis.
Sample test: The concentrations of the compound drugs in dorsal root ganglia were determined by the LC-MS/MS method.

Data set [4] concerns incision pain model. Description: Incision pain model in ICR mice, Von Frey test. The format is in vivo. The conditions noted are these: 50 mg/kg single dose, Mean + SEM, n = 10.
Data set [5] relates to acetic acid writhing model. Description: Mouse acetic acid writhing model. The format is in vivo, ICR mice. Here is the method:
Experimental Example 11: Pharmacodynamic effect study of compounds in mouse acetic acid writhing model
Experimental animals: ICR mice, male, 20-24 g.
Compound preparation: 5% (final preparation volume) of DMSO was added to dissolve the test compound, and then 10% (final preparation volume) of Cremophor EL and 85% Saline were sequentially added; an appropriate amount of Etoricoxib was weighed, 5% (final preparation volume) of DMSO was added to dissolve the test compound, and then 5% (final preparation volume) of HS-15 and 90% Saline were sequentially added.
• 1. The mice were randomly grouped based on the body weight for model establishment, with 10 animals per group. A 0.8% (v/v) acetic acid solution was intraperitoneally injected at an injection volume of 10 mL/kg. • 2. Administration and test
Administration was performed 60 min before modeling. After the acetic acid solution was injected, the number of writhing responses in mice was observed. […] The number of writhing responses was observed and recorded during two intervals: 0-15 min and 15-30 min, with a total observation duration of 30 min. Inhibition rate = (number of writhing responses in control group - number of writhing responses in administration group)/number of writhing responses in control group × 100%. The model control group was given normal saline, the positive control group 1 was given etoricoxib at 20 mg/kg, the positive control group 2 was given VX-548 at 50 mg/kg, and the remaining groups were given the compounds of the present disclosure according to the administration doses in the table below.
(In general: Writhing tests count abdominal constrictions after an irritant is injected.)

Where [6] appears, read: male, plasma, Oral administration, 10 mg/kg.
The mark [7] stands for this setting: male, plasma, iv, Injection (i.v.), 2 mg/kg.

Take `COc1c([C@@H]2C[C@](C)(C(F)(F)F)S[C@H]2C(=O)Nc2ccc(F)c(S(N)(=O)=O)c2)ccc(F)c1F` [Compound 233-A, (2R,3S,5R)-3-(3,4-difluoro-2-methoxyphenyl)-N-(4-fluoro-3-sulfamoylphenyl)-5-methyl-5-(trifluoromethyl)tetrahydrothiophene-2-carboxamide]: in the data set on incision pain model [1], the “PWT 50% value (g) Post-surgery, Preadministration” value (“PWT 50% value (g) Post-surgery” for short) is 0.22 ± 0.02 g; the “PWT 50% value (g) Pre-surgery” value is 1.54 ± 0.4 g; the “PWT 50% value (g) 0.5 h” value is 0.42 ± 0.34 g; the “PWT 50% value (g) 2 h” value was determined as 0.62 ± 0.32 g. For the same compound, the “PWT 50% value (g) 4 h” value in the data set on incision pain model [1] amounted to 0.41 ± 0.21 g. For the same compound, in data set [2] (setting [6]), the AUC(0-inf) was found to be 34100 ng·h/mL. In data set [2] (setting [7]), the AUC(0-inf) was 9490 ng·h/mL. Also, the inhibition at 0.001 µM at Nav1.8 channels was 94.1%. In data set [3], the concentration at 0.25 h amounted to 400 ng/g, the concentration at 2 h was 2850 ng/g and the concentration at 12 h was determined as 489 ng/g. Also, the “PWT 50% value (g) AUC0-8h” value in the data set on incision pain model [4] is 3.21 ± 1.35 g·h.
As for `COc1c([C@@H]2C[C@](C)(C(F)(F)F)S[C@H]2C(=O)Nc2ccn3nncc3c2)ccc(F)c1F` [Compound 246-A, (2R,3S,5R)-3-(3,4-difluoro-2-methoxyphenyl)-5-methyl-N-((1,2,3)triazolo(1,5-a)pyridin-5-yl)-5-(trifluoromethyl)tetrahydrothiophene-2-carboxamide], in the data set on incision pain model [1], the “PWT 50% value (g) Post-surgery” value was found to be 0.24 ± 0.03 g; the “PWT 50% value (g) Pre-surgery” value is 1.4 ± 0.17 g; the “PWT 50% value (g) 0.5 h” value amounted to 0.32 ± 0.12 g; the “PWT 50% value (g) 2 h” value amounted to 0.33 ± 0.16 g. In the data set with incision pain model [1], the “PWT 50% value (g) 4 h” value was 0.4 ± 0.27 g. This compound returned an AUC(0-inf) in data set [2] (setting [6]) of 2580 ng·h/mL. In data set [2] (setting [7]), the AUC(0-inf) amounted to 1400 ng·h/mL. Further, the inhibition at 0.001 µM at Nav1.8 channels was found to be 77.8%. For the same compound, the “PWT 50% value (g) AUC0-8h” value with incision pain model [4] stood at 2.53 ± 0.82 g·h.
For the compound `COc1c([C@@H]2C[C@](C)(C(F)(F)F)S[C@H]2C(=O)Nc2ccc3c(c2)S(=O)(=O)NC3)ccc(F)c1F` [Compound a-37-A, (2R,3S,5R)-3-(3,4-difluoro-2-methoxyphenyl)-N-(1,1-dioxide-2,3-dihydrobenzo[d]isothiazol-6-yl)-5-methyl-5-(trifluoromethyl)tetrahydrothiophene-2-carboxamide], in the data set with incision pain model [1], the “PWT 50% value (g) Post-surgery” value came out at 0.24 ± 0.03 g; the “PWT 50% value (g) Pre-surgery” value is 1.43 ± 0.33 g; the “PWT 50% value (g) 0.5 h” value was 0.33 ± 0.12 g; the “PWT 50% value (g) 2 h” value worked out at 0.55 ± 0.18 g. Further, in the data set on incision pain model [1], the “PWT 50% value (g) 4 h” value came out at 0.32 ± 0.1 g. In data set [2] (in vivo, Oral administration, 10 mg/kg), this compound registered an AUC(0-inf) of 8130 ng·h/mL. The compound also yielded an area under the curve AUC(0-inf) in data set [2] (in vivo, iv, Injection (i.v.), 2 mg/kg) of 2030 ng·h/mL. For the same compound, the “PWT 50% value (g) AUC0-8h” value with incision pain model [4] is 2.71 ± 0.39 g·h.
For `COc1c([C@@H]2C[C@](C)(C(F)(F)F)S[C@H]2C(=O)Nc2ccnc(N=[N+]=[N-])c2)ccc(F)c1F` [a-20-A, (2R,3S,5R)-N-(2-azidopyridin-4-yl)-3-(3,4-difluoro-2-methoxyphenyl)-5-methyl-5-(trifluoromethyl)tetrahydrothiophene-2-carboxamide], the “Number of writhing responses” value in data set [5] (ICR mice, Dose 50 mg/kg, 60 min before 0.8% acetic acid i.p., 30 min observation, Mean + SD, n = 10) amounted to 17 ± 11. In data set [5] (mouse acetic acid writhing model), the “inhibition of the writhing effect compared with VX-548” value is “better than VX-548”. Besides, in the data set on incision pain model [1], the “PWT 50% value (g) Post-surgery” value was 0.29 ± 0.09 g; the “PWT 50% value (g) Pre-surgery” value worked out at 1.14 ± 0.21 g; the “PWT 50% value (g) 0.5 h” value stood at 0.39 ± 0.14 g; the “PWT 50% value (g) 2 h” value is 0.49 ± 0.18 g. Besides, in the data set on incision pain model [1], the “PWT 50% value (g) 4 h” value was 0.57 ± 0.22 g. Also, in data set [2] (setting [6]), the AUC(0-inf) amounted to 15400 ng·h/mL. The same compound had an AUC(0-inf) in data set [2] (setting [7]) of 1990 ng·h/mL. The same compound yielded an IC50 against Nav1.8 channels of 0.001 nM. In data set [3], the concentration at 0.25 h was determined as 1040 ng/g, the concentration at 2 h turned out to be 5900 ng/g and the concentration at 12 h amounted to 1910 ng/g. In the data set with incision pain model [4], the “PWT 50% value (g) AUC0-8h” value amounted to 3.48 ± 0.82 g·h.
For the compound `CO/N=C(\N)c1cc(NC(=O)[C@@H]2S[C@@](C)(C(F)(F)F)C[C@H]2c2ccc(F)c(F)c2OC)ccn1` [a-57-A], in the data set on incision pain model [1], the “PWT 50% value (g) Post-surgery” value was 0.22 ± 0.02 g; the “PWT 50% value (g) Pre-surgery” value is 1.29 ± 0.22 g; the “PWT 50% value (g) 0.5 h” value came out at 0.43 ± 0.18 g; the “PWT 50% value (g) 2 h” value stood at 0.38 ± 0.14 g. For the same compound, the “PWT 50% value (g) 4 h” value with incision pain model [1] is 0.29 ± 0.11 g. Besides, the IC50 on Nav1.8 channels came to 0.023 nM. For the same compound, the “PWT 50% value (g) AUC0-8h” value in the data set with incision pain model [4] was determined as 4.4 ± 0.41 g·h.
As for `COc1c([C@@H]2C[C@](C)(C(F)(F)F)S[C@H]2C(=O)Nc2cccc(S(=O)(=O)N=[N+]=[N-])c2)ccc(F)c1F` [a-65-A, 3-((2R,3S,5R)-3-(3,4-difluoro-2-methoxyphenyl)-5-methyl-5-(trifluoromethyl)tetrahydrothiophene-2-carboxamido)benzenesulfonyl azide], in the data set on incision pain model [1], the “PWT 50% value (g) Post-surgery” value was found to be 0.22 ± 0.02 g; the “PWT 50% value (g) Pre-surgery” value was found to be 1.13 ± 0.08 g; the “PWT 50% value (g) 0.5 h” value amounted to 0.38 ± 0.16 g; the “PWT 50% value (g) 2 h” value turned out to be 0.43 ± 0.17 g. Besides, the “PWT 50% value (g) 4 h” value in the data set on incision pain model [1] stood at 0.51 ± 0.2 g. The compound also displayed an IC50 at Nav1.8 channels of 0.017 nM. Also, the “PWT 50% value (g) AUC0-8h” value in the data set on incision pain model [4] worked out at 4.87 ± 0.97 g·h.
